Experimental data taken from US4145554A, “3-Nitropyrazole derivatives” (Eli Lilly and Company, priority 1977, dated 1979).
Converted amounts (≈) assume the structure as drawn. Where two headings read alike, the source gives them in different places.

How the values were obtained:
Escherichia coli [1] = test: in vitro tube dilution test (MIC); format: cell-based; details: tube dilution, read-out: MIC
Summary of the method: (§1)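 Standard tube dilution test; MIC reported as micrograms of compound per milliliter.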

Mycoplasma gallisepticum = test: in vitro tube dilution test (MIC); format: cell-based; details: Mycoplasmoides gallisepticum; Mycoplasma galliseptioum, tube dilution; read-out: MIC
Summary of the method: as §1

Mycoplasma synoviae = test: in vitro tube dilution test (MIC); format: cell-based; details: Mycoplasmopsis synoviae, Mycoplasma synoviae
Summary of the method: as §1

Mycoplasma hyorhinis = test: in vitro tube dilution test (MIC); format: cell-based
Source text: (§2) Our compound, 1-(2-hydroxyethyl)-3-nitro-4-pyrazolecarboxamide, has been extensively tested in vitro to determine the range of microorganisms against which it is active. The table of data below reports the minimum inhibitory concentration (MIC) at which the compound is effective in controlling a variety of microorganisms in a standard tube dilution test system. The MIC is reported as micrograms of compound per milliliter.
(§3) The other preferred compounds of our invention have also been thoroughly tested in the in vitro tube dilution test.

Pseudomonas sp. = test: in vitro tube dilution test (MIC); format: cell-based
Source text: as §2, §3

[2] = system: Salmonella heidelburg 1593; test: in vitro tube dilution test (MIC); format: cell-based; details: Salmonella heidelburg 1593 (turkey pancreas), tube dilution
Source text: as §2, §3

Salmonella pullorum Ill. = test: in vitro tube dilution test (MIC); format: cell-based; details: Salmonella enterica
Source text: as §2, §3

[3] = system: Salmonella typhimurium 1335; test: in vitro tube dilution test (MIC); format: cell-based; details: Salmonella enterica; Salmonella typhimurium 1335 (turkey intestine), tube dilution
Source text: as §2, §3

Pasteurella multocida = test: in vitro tube dilution test (MIC); format: cell-based; details: tube dilution, read-out: MIC
Summary of the method: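 Standard tube dilution test; MIC is the lowest compound concentration controlling growth, given in μg/mL.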

Pasteurella hemolytica = test: in vitro tube dilution test (MIC); format: cell-based
Mycoplasma hyosynoviae = test: in vitro tube dilution test (MIC); format: cell-based
Erysipelas insidiosa = test: in vitro tube dilution test (MIC); format: cell-based
Leptospira (5 serotypes) = test: in vitro tube dilution test (MIC); format: cell-based
Hemophilus somnus = test: in vitro tube dilution test (MIC); format: cell-based
[4] = system: Salmonella typhimurium 1503; test: in vitro tube dilution test (MIC); format: cell-based; details: Salmonella enterica, Salmonella typhimurium 1503 (poult intestine)
Salmonella pullorum 9-25 = test: in vitro tube dilution test (MIC); format: cell-based; details: Salmonella enterica; Salmonella pullorum 9-25, tube dilution
Citrobacter freundii = test: agar dilution technique (MIC); format: cell-based
Escherichia coli [5] = test: agar dilution technique (MIC); format: cell-based
Hemophilus influenzae = test: agar dilution technique (MIC); format: cell-based; details: Haemophilus influenzae
Serratia sp. = test: agar dilution technique (MIC); format: cell-based
Pseudomonas aeruginosa = test: agar dilution technique (MIC); format: cell-based
Alkaligenes fecalis = test: agar dilution technique (MIC); format: cell-based
E. amylovora = test: Fire blight of field-grown pear trees, natural and induced infections; format: in vivo; details: 100 to 800 ppm. aqueous dispersions
Method: Our compound, 1-(2-hydroxyethyl)-3-nitro-4-pyrazolecarboxamide, was also tested against natural and induced infections of E. amylovora on field-grown pear trees.

E. coli = test: Tests in mice, E. coli infection; format: in vivo
Method: Groups of laboratory mice were inoculatd with E. coli or with Streptococcus pyogenes. The 3-nitropyrazoles were administered in two different modes to the infected mice. In one group of tests, the compound was administered in two subcutaneous doses of 83 mg./kg. each, given 1 and 5 hours after the mice were inoculated with the organism. The mice were observed, and the results reported below as the number of days the treated mice survived the challenge.
In the other group of tests, the dose of each compound which allowed 50 percent of the treated mice to survive the challenge was determined. Again, the compound was administered in subcutane divided doses, 1 and 5 hours post-inoculation.

P. multocida = test: Mice infected with P. multocida, compound injected subcutaneously; format: in vivo; details: 2.5 mg./kg. subcutaneous
Method: A second test was conducted in much the same way, except that the 3-nitropyrazole was injected to the treated mice subcutaneously at the same time they were infected with the P. multocida culture.

Salmonella typhimurium = test: Salmonellosis in chickens, single injection to day-old chicks; format: in vivo; details: Salmonella enterica, TYPHIMURIUM, 168 h; single injection of 60 mg./kg.; seven days; read-out: Survival (converted)
Summary of the method: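 Five day-old chicks per group received one injection of compound at 60 mg./kg., then were challenged next day by subcutaneous S. typhimurium at a dose lethal to most or all untreated controls. Read-out is survivor count, pooled over repeat groups, with untreated challenged controls run in each batch.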

S. typhimurium = test: Salmonella typhimurium in chickens, medicated feed; format: in vivo, chicks; details: for Avg. Wt.: surviving chicks
Salmonella typhosa = test: agar dilution technique (MIC); details: Salmonella enterica

`NC(=O)c1cn(CCO)nc1[N+](=O)[O-]` [Compound 32, 1-(2-hydroxyethyl)-3-nitro-4-pyrazolecarboxamide] was tested, and the MIC (Escherichia coli [1]) was 3.12 µg/mL (≈ 15.6 µM), the MIC (Mycoplasma gallisepticum) was 0.78 µg/mL (≈ 3.9 µM) and the MIC (Mycoplasma synoviae) was 50 µg/mL (≈ 250 µM). It also gave an MIC (Mycoplasma hyorhinis) of 50 µg/mL (≈ 250 µM), an MIC (Pseudomonas sp.) of 12.5 µg/mL (≈ 62.5 µM) and an MIC [2] of under 1.56 µg/mL. It also gave an MIC (Salmonella pullorum Ill.) of under 1.56 µg/mL, an MIC [3] of 6.25 µg/mL (≈ 31.2 µM) and an MIC (Pasteurella multocida; Cattle Isolates) of under 1.56 µg/mL. It also gave an MIC (Pasteurella multocida; Swine Isolate (first line)) of over 50 µg/mL, an MIC (Pasteurella multocida; Swine Isolate (second line)) of 6.25 µg/mL (≈ 31.2 µM) and an MIC (Pasteurella multocida; Turkey Isolates) of over 50 µg/mL. It also gave an MIC (Pasteurella hemolytica) of under 1.56 µg/mL, an MIC (Mycoplasma hyosynoviae) of 50 µg/mL (≈ 250 µM) and an MIC (Erysipelas insidiosa) of over 50 µg/mL. For the same compound, the MIC (Leptospira (5 serotypes)) was over 100 µg/mL, the MIC (Hemophilus somnus) was over 100 µg/mL and the MIC [4] was under 1.56 µg/mL. It also gave an MIC (Salmonella pullorum 9-25) of under 1.56 µg/mL, an MIC (Citrobacter freundii) of 8 µg/mL (≈ 40 µM) and an MIC (Escherichia coli [5]) of 8 µg/mL (≈ 40 µM). For the same compound, the MIC (Hemophilus influenzae) was 4 µg/mL (≈ 20 µM), the MIC (Serratia sp.) was 32 µg/mL (≈ 160 µM) and the MIC (Pseudomonas aeruginosa) was 128 µg/mL (≈ 640 µM). For the same compound, the MIC (Alkaligenes fecalis) was 128 µg/mL (≈ 640 µM), the “control of fire blight on field-grown pear trees” value (E. amylovora) was “controlled fire blight on the pear trees” and the ED50 (E. coli; Escherichia coli, sc, subcutaneous, 1 and 5 hours post-inoculation) was 19.6 mg/kg. The “Days Survived” value (E. coli; two subcutaneous doses of 83 mg./kg., 1 and 5 hours) was 7.0 days, the Survival (P. multocida) was 8/10 and the responders at 60 mg/kg (Salmonella typhimurium) was 93.3%. For the same compound, the Survival (S. typhimurium; Test A, 100 gm./ton feed) was 20/36, the “Avg. Wt.” value (S. typhimurium; Test A, 100 gm./ton feed) was 94 gm and the Survival (S. typhimurium; Test B, 200 gm./ton feed) was 35/36. The “Avg. Wt.” value (S. typhimurium; Test B, 200 gm./ton feed) was 107 gm, the Survival (S. typhimurium; Test C, 200 gm./ton feed) was 34/48 and the “Avg. Wt.” value (S. typhimurium; Test C, 200 gm./ton feed) was 71 gm. For the same compound, the MIC (Salmonella typhosa) was 2 µg/mL (≈ 9.99 µM).
